Consider 30 compounds from ChEMBL document CHEMBL1201862, “PubChem BioAssay data set” (2004).

Among the test systems are XF498; KM-20L2; M19-MEL; HOP-18; DMS-114; BT-549; MDA-N; DLD-1; RXF 631.
Common to all, as to assay: DTP human tumour cell line panel, 48 h

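Results reflect a 48-hour exposure of cells in 96-well plates to compound at five concentrations. The concentration for 50% growth inhibition is given as GI50.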 Active and inactive are the calls of the source. Cut-off read from the data, not from the text of the source: active = GI50 up to about 1.1 µM and inactive = higher. *1 amine or outer side, *2 acyl side, *3 side chain or, on linkers, in order; H or OH if unused. Where a SMILES comes first, the peptide text is derived from it. Bridges are numbered along the chain shown (N, C = ends). [ ]: non-standard residue; d: D form. The star is where a group is joined. X56 = CC(C)C(C)C(C(=O)[*:2])N(C)[*:1]; Picolinoyl(3-OH) = O=C(c1ncccc1O)*; NMePhg = CN[CH](C(=O)O)c1ccccc1; Hyp = O=C(O)[CH]1C[CH](O)CN1; Sar = CNCC(=O)O

`CCOC(=O)C(CC(C)C)NC(=O)C(Cc1ccc(N(CCCl)CCCl)cc1)NC(C)=O` (stereo not given): the GI50 in the assay with XF498 was 0.406 µM (active); with KM-20L2, 20 µM (inactive); in the assay with M19-MEL it was 3.84 µM (inactive); in the assay on HOP-18 it was 14 µM (inactive); in the assay with DMS-114 it was 0.849 µM (active); in the assay with BT-549, 6.67 µM (inactive). Moreover, in the assay with MDA-N, the GI50 was 2.67 µM (inactive).
In the case of `COc1ccc(-c2ccc(CC(=O)O)cc2)cc1OC`, the GI50 with DLD-1 was > 100 µM (inactive); with XF498, 20.7 µM (inactive); with KM-20L2 it was > 100 µM (inactive); in the assay on M19-MEL, > 100 µM (inactive); in the assay with DMS-114, > 100 µM (inactive).
Take `CC(C)CC1NC(=O)C(NC(=O)c2ncccc2O)C(C)OC(=O)C(c2ccccc2)N(C)C(=O)C(C)NC(=O)C(C(C)C(C)C)N(C)C(=O)CN(C)C(=O)C2CC(O)CN2C1=O` (stereo not given) ({Picolinoyl(3-OH)}-TL[Hyp][Sar][X56]A[NMePhg]; ester 1-C; configuration not given here): the GI50 with DLD-1 is 82.4 µM (inactive); in the assay on XF498 it was 35.6 µM (inactive); in the assay on KM-20L2, 7.93 µM (inactive); in the assay with M19-MEL, 68.2 µM (inactive); with HOP-18, 83.6 µM (inactive); with DMS-114 it was > 119 µM (inactive).
`Cc1cc(C)nc(NS(=O)(=O)c2ccc(Nc3c4ccccc4nc4c(C(=O)Nc5ccc(S(=O)(=O)Nc6cc(C)on6)cc5)cccc34)cc2)n1`: the GI50 is 28.1 µM (inactive) in the assay on DLD-1; 22.5 µM (inactive) in the assay on XF498; 21 µM (inactive) in the assay on KM-20L2; 23.4 µM (inactive) with M19-MEL; 20.4 µM (inactive) with HOP-18; 19.1 µM (inactive) with DMS-114.
In the case of `ClC1CCC2OOC1O2` (stereo not given), the GI50 in the assay on KM-20L2 was > 100 µM (inactive); with M19-MEL it was > 100 µM (inactive); with DMS-114, 43.7 µM (inactive).
For `CC(C)[C@@H](C)CC[C@@H](C)C1CC=C2[C@@H]3CCC4C[C@@H](O[Si](C)(C)C(C)(C)C)CC[C@]4(C)C3CC[C@@]21C` (stereo not given in full), the GI50 with KM-20L2, with M19-MEL, in the assay with RXF 631, in the assay with HOP-18 and in the assay on DMS-114 was > 100 µM (inactive) in each case.
For the compound `Cc1ccc(S(=O)(=O)C2=c3ncccc3=C3C(=O)c4ccccc4C(=O)C32)cc1` (stereo not given), the concentration for 50% growth inhibition (GI50) with DLD-1 was < 0.01 µM (active); with M19-MEL it was < 0.01 µM (active); with HOP-18, > 100 µM (inactive); in the assay on DMS-114, 65 µM (inactive); in the assay on BT-549, 39.8 µM (inactive); in the assay on MDA-N, > 100 µM (inactive).
Take `N#CC1=C(N)n2c(s/c(=C\c3ccc(Cl)cc3)c2=O)=C(c2nc3ccccc3[nH]2)C1c1ccc(Cl)cc1` (stereo not given): the GI50 in the assay with DLD-1 is 3.65 µM (inactive); in the assay on XF498 it was 1.63 µM (inactive); with KM-20L2, 2.21 µM (inactive); in the assay on M19-MEL it was 3.04 µM (inactive); in the assay on DMS-114, 1.99 µM (inactive).
`CCCCCCCCCCCCCCCCCCC1=C(O)C(=O)C=C(OC)C1=O`: the GI50 in the assay with DLD-1 is 47.3 µM (inactive); with XF498 it was > 100 µM (inactive); with KM-20L2 it was 42.9 µM (inactive); in the assay with M19-MEL, 39.1 µM (inactive); in the assay with HOP-18, 43 µM (inactive); with DMS-114 it was 21.7 µM (inactive).
With `CCCCCCCC/C=C/CCCCCCCC(=O)N(O)C1CC(n2cc(C)c(=O)[nH]c2=O)OC1CO` (stereo not given), the GI50 in the assay with DLD-1 is 6.4 µM (inactive); in the assay on KM-20L2, 3.56 µM (inactive); in the assay with M19-MEL it was 5.3 µM (inactive); in the assay on HOP-18, 3.65 µM (inactive); in the assay on DMS-114 it was 4.41 µM (inactive).
Take `CCC1(O)C[C@H]2CN(CCCc3c([nH]c4ccccc34)[C@@](C(=O)OC)(c3cc4c(cc3OC)N(C)C3[C@](O)(C(=O)OC)[C@H](OC(C)=O)[C@]5(CC)C=CCN6CC[C@]43[C@H]65)C2)C1` (stereo not given in full): the GI50 was 2.22 µM (inactive) in the assay with DLD-1, 0.298 µM (active) with KM-20L2, 0.902 µM (active) with M19-MEL and 0.146 µM (active) in the assay with HOP-18.
As for `CCOC(=O)C(=O)Nc1cc(Cl)ccc1Cl`, the GI50 in the assay on DLD-1, with XF498, in the assay on KM-20L2, in the assay with M19-MEL, with HOP-18 and in the assay on DMS-114 was > 100 µM (inactive) each time.
In the case of `COc1ccc(C(=O)OCC2OC(n3cnc4c(=S)nc[nH]c43)C(OC(=O)c3ccc(OC)cc3)C2OC(=O)c2ccc(OC)cc2)cc1` (stereo not given), the GI50 was 11.6 µM (inactive) in the assay on DLD-1, 8.47 µM (inactive) with KM-20L2, > 100 µM (inactive) in the assay on M19-MEL and 5.65 µM (inactive) with DMS-114.
In the case of `CC(C)c1cccc(C(C)C)c1NC(=O)C(=O)C1CCC2=C(Sc3ccccc3N2)C1=O` (stereo not given), the GI50 was > 100 µM (inactive) in the assay with DLD-1; 86.3 µM (inactive) in the assay with KM-20L2; > 100 µM (inactive) in the assay on M19-MEL; 4.18 µM (inactive) in the assay on RXF 631; > 100 µM (inactive) in the assay on HOP-18; 52.8 µM (inactive) in the assay on DMS-114.
On to `CCC1CN2CCC3(c4ccccc4)CC(C(=O)OC)=CC1C23` (stereo not given), for which the GI50 is 17.2 µM (inactive) with DLD-1; 0.183 µM (active) with XF498; 16.3 µM (inactive) with KM-20L2; 17.1 µM (inactive) in the assay on M19-MEL; 15 µM (inactive) with RXF 631; 14.9 µM (inactive) in the assay on HOP-18.
Regarding `COc1cc2c(cc1OC)C(=O)Cc1ccc3c(c1CNCC2)OCO3`, the GI50 with DLD-1, in the assay on XF498, in the assay on KM-20L2, in the assay on M19-MEL, in the assay on HOP-18 and in the assay on DMS-114 was > 100 µM (inactive) throughout.
With `CC(C)c1cccc2sc(NC(=O)C(=O)C(C#N)c3cccc4ccccc34)nc12` (stereo not given), the GI50 in the assay on DLD-1 was 98.6 µM (inactive); in the assay with KM-20L2, > 100 µM (inactive); with M19-MEL, 91.4 µM (inactive); in the assay on RXF 631, > 100 µM (inactive); in the assay on HOP-18, 61.2 µM (inactive); in the assay with DMS-114, 40.4 µM (inactive).
As to `CCCCCCCC(=O)OC[C@@H](C[As](=O)(O)O)OC(=O)CCCCCCC`, the GI50 with DLD-1 is 13.6 µM (inactive); in the assay on KM-20L2 it was 16.9 µM (inactive); in the assay on M19-MEL it was 14.9 µM (inactive); with HOP-18, 18.2 µM (inactive); in the assay on DMS-114 it was 10.4 µM (inactive).
Regarding `COc1ccccc1/N=N/c1c(-c2ccccc2)nn(C(=O)CC(=O)Nc2ccccc2Cl)c1-c1ccccc1`, the GI50 in the assay with DLD-1, in the assay on XF498, in the assay on KM-20L2, in the assay with M19-MEL, with HOP-18 and in the assay with DMS-114 was > 100 µM (inactive) each time.
On to `O=C(O)CSc1ccc2nc3ccccc3c(O)c2c1`, for which the GI50 in the assay with DLD-1, in the assay on KM-20L2, with M19-MEL, with HOP-18 and in the assay on DMS-114 was > 100 µM (inactive) each time.
As to `CC(=O)O[C@]1(C(C)=O)CC[C@H]2[C@@H]3C[C@H](C)C4=CC(=O)C=C[C@]4(C)[C@@]3(F)[C@@H](O)C[C@@]21C` [FLUOROMETHOLONE ACETATE], the GI50 in the assay on DLD-1 was 94.6 µM (inactive); in the assay with XF498, 38.3 µM (inactive); with KM-20L2, > 100 µM (inactive); with M19-MEL it was > 100 µM (inactive); with DMS-114, 53.6 µM (inactive).
In the case of `CCC1=C(C(C)=O)[C@@H]2CCCCC[C@@H](C(=O)OC)C2C1=O` (stereo not given in full), the GI50 in the assay on DLD-1 was > 100 µM (inactive); in the assay on XF498, > 100 µM (inactive); in the assay with KM-20L2, > 100 µM (inactive); in the assay on M19-MEL, > 100 µM (inactive); with HOP-18, 57.9 µM (inactive); in the assay with DMS-114, > 100 µM (inactive).
Consider `CC1=CCC2(C#N)CCC1C2O` (stereo not given), for which the GI50 in the assay on DLD-1 was > 100 µM (inactive); with XF498, > 100 µM (inactive); in the assay with KM-20L2, 39.4 µM (inactive); in the assay on M19-MEL, > 100 µM (inactive); in the assay on HOP-18 it was > 100 µM (inactive); in the assay on DMS-114 it was > 100 µM (inactive).
As to `OCC12C=CC(C1)c1ccccc12` (stereo not given), the GI50 with DLD-1, in the assay on KM-20L2, with M19-MEL, in the assay with RXF 631, with HOP-18 and in the assay with DMS-114 was > 100 µM (inactive) each time.
For `CCOC(=O)c1ccc(O)cc1` [ETHYLPARABEN], the GI50 with DLD-1, with XF498, with KM-20L2, in the assay on M19-MEL, with RXF 631 and with DMS-114 was > 100 µM (inactive) throughout.
Take `O=C1c2ccccc2C(=O)C1(O)c1c[nH]c2ccccc12`: the GI50 in the assay with DLD-1, in the assay with XF498, in the assay on KM-20L2, in the assay on M19-MEL, with RXF 631 and in the assay on DMS-114 was > 100 µM (inactive) in each case.
On to `Cc1ccc(SC(CCC(Sc2ccc(C)cc2)Sc2ccc(C)cc2)Sc2ccc(C)cc2)cc1`, for which the GI50 with DLD-1, with XF498, with KM-20L2, in the assay on M19-MEL, with RXF 631 and with DMS-114 was > 100 µM (inactive) in each case.
`Cc1ccc2[nH]c3c(C)c4cc[n+](C)cc4c(C)c3c2c1`: the GI50 with DLD-1 was 1.67 µM (inactive); in the assay on KM-20L2, 3.96 µM (inactive); in the assay on HOP-18, 9.66 µM (inactive); in the assay on DMS-114, 0.61 µM (active); in the assay with BT-549, 0.753 µM (active); in the assay on MDA-N it was 4.03 µM (inactive).
Regarding `N#CC(Nc1cccc(C(F)(F)F)c1)c1ccccc1C(F)(F)F` (stereo not given), the GI50 is 15.9 µM (inactive) in the assay on DLD-1; 3.94 µM (inactive) with XF498; 13.8 µM (inactive) with KM-20L2; 7.23 µM (inactive) with M19-MEL; 13.5 µM (inactive) in the assay on HOP-18; 8.91 µM (inactive) in the assay on DMS-114.
With `CCCNC(=O)Nc1c([N+](=O)[O-])cc(C(F)(F)F)cc1[N+](=O)[O-]`, the GI50 with XF498 was 35.6 µM (inactive); with KM-20L2, 26.2 µM (inactive); in the assay with M19-MEL, 42.8 µM (inactive); in the assay with RXF 631, 12.7 µM (inactive).
